In series [1] the target is T1, Human Neuropeptide Y2 Receptor (Homo sapiens, UniProt P49146).
T1 construct: purchased CHEMICON HTS066M
T1 sequence (P49146 1-381): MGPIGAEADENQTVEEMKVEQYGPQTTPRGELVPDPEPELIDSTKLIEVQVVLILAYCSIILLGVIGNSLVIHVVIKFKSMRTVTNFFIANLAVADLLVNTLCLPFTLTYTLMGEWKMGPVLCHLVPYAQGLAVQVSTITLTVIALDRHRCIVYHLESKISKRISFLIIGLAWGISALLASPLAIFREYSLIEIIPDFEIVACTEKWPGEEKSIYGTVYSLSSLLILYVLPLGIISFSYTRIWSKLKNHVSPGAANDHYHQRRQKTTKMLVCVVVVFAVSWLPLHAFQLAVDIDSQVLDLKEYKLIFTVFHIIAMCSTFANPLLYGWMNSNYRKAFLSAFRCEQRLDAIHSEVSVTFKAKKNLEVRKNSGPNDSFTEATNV
As to the kind of experiment: Radioligand binding competition assay (RLB). The settings on record: Table 3, 125I-PYY(1-36) competition; read-out: Ki. The gist of the method:
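Filtration competition binding on membranes from cells expressing the receptor, 0.5 μg protein/well, in 50 mM HEPES, 5 mM MgCl2, 1 mM CaCl2, pH 7.4, with 0.2% ovalbumin. Incubation ran 2 h at room temperature, followed by GF/C filtration and scintillation counting. IC50 came from nonlinear sigmoidal fits.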

Another series can be described thus: Solubility determination. Particulars: for Sol6: pH 6; for Sol7: pH 7. In outline:
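Solubility is derived from the ratio of reversed-phase peak areas, filtered sample over a control dissolved at 1 mg/ml in 50% acetonitrile. Peptides are agitated for 2 hours at room temperature in 0.1 M sodium diphosphate at pH 6.4 or 7.0, aiming at 10 mg/ml.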

The Ki is the equilibrium dissociation constant of an inhibitor or competing ligand from its target. Take `CC(C)CC(=O)N[C@@H](C)C(=O)N1CCC[C@H]1C(=O)N[C@@H](CCC(=O)O)C(=O)N[C@@H](CCCCNC(=O)CCCCCNC(=O)CC[C@H](NC(=O)CCCCCCCCCCCCCCCCC(=O)O)C(=O)O)C(=O)N1CCC[C@H]1C(=O)N[C@@H](CCC(=O)O)C(=O)N[C@@H](CCC(=O)O)C(=O)N[C@@H](CC(=O)O)C(=O)N[C@@H](C)C(=O)N[C@@H](CCC(=O)O)C(=O)N1CCC[C@H]1C(=O)N[C@@H](CCC(=O)O)C(=O)N[C@@H](CCC(=O)O)C(=O)N[C@@H](CC(C)C)C(=O)N[C@@H](CCC(N)=O)C(=O)N[C@@H](C)C(=O)N[C@@H](Cc1ccc(O)cc1)C(=O)N[C@@H](Cc1ccc(O)cc1)C(=O)N[C@H](C(=O)N[C@@H](CO)C(=O)N[C@@H](CC(C)C)C(=O)N[C@@H](CCCNC(=N)N)C(=O)N[C@@H](Cc1c[nH]cn1)C(=O)N[C@@H](Cc1ccc(O)cc1)C(=O)N[C@@H](Cc1ccc(O)cc1)C(=O)N[C@@H](CC(N)=O)C(=O)N[C@@H](Cc1c[nH]c2ccccc12)C(=O)N[C@@H](CC(C)C)C(=O)N[C@H](C(=O)N[C@@H](CCCNC(=N)N)C(=O)N[C@@H](CCC(N)=O)C(=O)N[C@@H](CCCNC(=N)N)C(=O)N[C@@H](Cc1ccc(O)cc1)C(N)=O)[C@@H](C)O)C(C)C` [Compound 169, N{alpha-4}-(3-methylbutanoyl)-N{epsilon-7}-(6-[(4S)-4-carboxy-4-(17-carboxyheptadecanamido)butanamido]hexanoyl)-[4A,7K,9E,13E,18Q,19A,22V,28Y,30W,31L]-hPYY(4-36)]: in series [1], the Ki was 5.82 nM. Also, in the series “Solubility determination”, the “Sol6” value turned out to be 9.7 mg/mL and the “Sol7” value is 9.8 mg/mL.
For the compound `CC(C)CC(=O)N[C@@H](C)C(=O)N1CCC[C@H]1C(=O)N[C@@H](C)C(=O)N[C@@H](CCCCNC(=O)CCCCCNC(=O)CC[C@H](NC(=O)CCCCCCCCCCCCCCCCC(=O)O)C(=O)O)C(=O)N1CCC[C@H]1C(=O)N[C@@H](CCC(=O)O)C(=O)N[C@@H](CCC(=O)O)C(=O)N[C@@H](CC(=O)O)C(=O)N[C@@H](C)C(=O)N[C@@H](CO)C(=O)N1CCC[C@H]1C(=O)N[C@@H](CCC(=O)O)C(=O)N[C@@H](CCC(=O)O)C(=O)N[C@@H](CC(C)C)C(=O)N[C@@H](CCC(N)=O)C(=O)N[C@@H](CCCNC(=N)N)C(=O)N[C@@H](Cc1ccc(O)cc1)C(=O)N[C@@H](Cc1ccc(O)cc1)C(=O)N[C@H](C(=O)N[C@@H](CCC(=O)O)C(=O)N[C@@H](CC(C)C)C(=O)N[C@@H](CCCNC(=N)N)C(=O)N[C@@H](Cc1c[nH]cn1)C(=O)N[C@@H](Cc1ccc(O)cc1)C(=O)N[C@@H](Cc1ccc(O)cc1)C(=O)N[C@@H](CC(N)=O)C(=O)N[C@@H](Cc1c[nH]c2ccccc12)C(=O)N[C@@H](CC(C)C)C(=O)N[C@H](C(=O)N[C@@H](CCCNC(=N)N)C(=O)N[C@@H](CCC(N)=O)C(=O)N[C@@H](CCCNC(=N)N)C(=O)N[C@@H](Cc1ccc(O)cc1)C(N)=O)[C@@H](C)O)C(C)C` [Compound 166, N{alpha-4}-(3-methylbutanoyl)-N{epsilon-7}-(6-[(4S)-4-carboxy-4-(17-carboxyheptadecanamido)butanamido]hexanoyl)-[4A,6A,7K,9E,18Q,22V,23E,28Y,30W,31L]-hPYY(4-36)], in series [1], the Ki was found to be 2.05 nM. Also, in the series “Solubility determination”, the “Sol6” value turned out to be 9.2 mg/mL and the “Sol7” value was found to be 9.7 mg/mL.
For `CC(C)CC(=O)N[C@@H](C)C(=O)N1CCC[C@H]1C(=O)N[C@@H](CCC(=O)O)C(=O)N[C@@H](CCCCNC(=O)CCCCCNC(=O)CC[C@H](NC(=O)CCCCCCCCCCCCCCCCC(=O)O)C(=O)O)C(=O)N1CCC[C@H]1C(=O)N[C@@H](CCC(=O)O)C(=O)N[C@@H](CCC(=O)O)C(=O)N[C@@H](CC(=O)O)C(=O)N[C@@H](C)C(=O)N[C@@H](CCC(=O)O)C(=O)N1CCC[C@H]1C(=O)N[C@@H](CCC(=O)O)C(=O)N[C@@H](CCC(=O)O)C(=O)N[C@@H](CC(C)C)C(=O)N[C@@H](CCC(N)=O)C(=O)N[C@@H](CCCNC(=N)N)C(=O)N[C@@H](Cc1ccc(O)cc1)C(=O)N[C@@H](Cc1ccc(O)cc1)C(=O)N[C@H](C(=O)N[C@@H](CO)C(=O)N[C@@H](CC(C)C)C(=O)N[C@@H](CCCNC(=N)N)C(=O)N[C@@H](Cc1c[nH]cn1)C(=O)N[C@@H](Cc1ccc(O)cc1)C(=O)N[C@@H](Cc1ccc(O)cc1)C(=O)N[C@@H](CCC(N)=O)C(=O)N[C@@H](Cc1c[nH]c2ccccc12)C(=O)N[C@@H](CC(C)C)C(=O)N[C@H](C(=O)N[C@@H](CCCNC(=N)N)C(=O)N[C@@H](CCC(N)=O)C(=O)N[C@@H](CCCNC(=N)N)C(=O)N[C@@H](Cc1ccc(O)cc1)C(N)=O)[C@@H](C)O)C(C)C` [Compound 68, N{alpha-4}-(3-methylbutanoyl)-N{epsilon-7}-(6-[(4S)-4-carboxy-4-(17-carboxyheptadecanamido)butanamido]hexanoyl)-[4A,7K,9E,13E,18Q,22V,28Y,29Q,30W,31L]-hPYY(4-36)], in that order: 9.07 nM, 9.9 mg/mL and 10.0 mg/mL.
The corresponding values for `CC(C)CC(=O)N[C@@H](C)C(=O)N1CCC[C@H]1C(=O)N[C@@H](C)C(=O)N[C@@H](CCCCNC(=O)CCCCCNC(=O)CC[C@H](NC(=O)CCCCCCCCCCCCCCCCC(=O)O)C(=O)O)C(=O)N1CCC[C@H]1C(=O)N[C@@H](CCC(=O)O)C(=O)N[C@@H](CCC(=O)O)C(=O)N[C@@H](C)C(=O)N[C@@H](C)C(=O)N[C@@H](CCC(=O)O)C(=O)N1CCC[C@H]1C(=O)N[C@@H](CCC(=O)O)C(=O)N[C@@H](CCC(=O)O)C(=O)N[C@@H](CC(C)C)C(=O)N[C@@H](CCC(N)=O)C(=O)N[C@@H](CCCNC(=N)N)C(=O)N[C@@H](Cc1ccc(O)cc1)C(=O)N[C@@H](Cc1ccc(O)cc1)C(=O)N[C@H](C(=O)N[C@@H](C)C(=O)N[C@@H](CC(C)C)C(=O)N[C@@H](CCCNC(=N)N)C(=O)N[C@@H](Cc1c[nH]cn1)C(=O)N[C@@H](Cc1ccc(O)cc1)C(=O)N[C@@H](Cc1ccc(O)cc1)C(=O)N[C@@H](CC(N)=O)C(=O)N[C@@H](Cc1c[nH]c2ccccc12)C(=O)N[C@@H](CC(C)C)C(=O)N[C@H](C(=O)N[C@@H](CCCNC(=N)N)C(=O)N[C@@H](CCC(N)=O)C(=O)N[C@@H](CCCNC(=N)N)C(=O)N[C@@H](Cc1ccc(O)cc1)C(N)=O)[C@@H](C)O)C(C)C` [Compound 161, N{alpha-4}-(3-methylbutanoyl)-N{epsilon-7}-(6-[(4S)-4-carboxy-4-(17-carboxyheptadecanamido)butanamido]hexanoyl)-[4A,6A,7K,9E,11A,13E,18Q,22V,23A,28Y,30W,31L]-hPYY(4-36)] are 4 nM, 0.2 mg/mL and greater than 10.0 mg/mL.
With `CC[C@H](C)[C@H](NC(=O)[C@H](CCC(=O)O)NC(=O)[C@H](CCC(=O)O)NC(=O)[C@@H]1CCCN1C(=O)[C@@H](NC(=O)[C@H](C)NC(=O)[C@H](CC(=O)O)NC(=O)[C@H](CCC(=O)O)NC(=O)[C@H](CCC(=O)O)NC(=O)[C@@H]1CCCN1C(=O)[C@H](CCCCNC(=O)CCCCCNC(=O)CC[C@H](NC(=O)CCCCCCCCCCCCCCCCC(=O)O)C(=O)O)NC(=O)[C@H](CCC(=O)O)NC(=O)[C@@H]1CCCN1C(=O)[C@H](C)NC(=O)CC(C)C)[C@@H](C)O)C(=O)N[C@@H](CCC(N)=O)C(=O)N[C@@H](CCCNC(=N)N)C(=O)N[C@@H](Cc1ccc(O)cc1)C(=O)N[C@@H](Cc1ccc(O)cc1)C(=O)N[C@@H](C)C(=O)N[C@@H](CO)C(=O)N[C@@H](CC(C)C)C(=O)N[C@@H](CCCNC(=N)N)C(=O)N[C@@H](Cc1c[nH]cn1)C(=O)N[C@@H](Cc1ccc(O)cc1)C(=O)N[C@@H](Cc1ccc(O)cc1)C(=O)N[C@@H](CC(N)=O)C(=O)N[C@@H](Cc1c[nH]c2ccccc12)C(=O)N[C@@H](CC(C)C)C(=O)N[C@H](C(=O)N[C@@H](CCCNC(=N)N)C(=O)N[C@@H](CCC(N)=O)C(=O)N[C@@H](CCCNC(=N)N)C(=O)N[C@@H](Cc1ccc(O)cc1)C(N)=O)[C@@H](C)O` [Compound 86, N{alpha-4}-(3-methylbutanoyl)-N{epsilon-7}-(6-[(4S)-4-carboxy-4-(17-carboxyheptadecanamido)butanamido]hexanoyl)-[4A,7K,9E,13T,17I,18Q,28Y,30W,31L]-hPYY(4-36)], the inhibitory constant (Ki) in series [1] was determined as 4.33 nM. Further, in the series “Solubility determination”, the “Sol6” value was greater than 10.0 mg/mL and the “Sol7” value was greater than 10.0 mg/mL.

For the origin of these results see patent US12391737B2, “Soluble NPY2 receptor agonists” (Boehringer Ingelheim International GmbH, priority 2020, dated 2025).
